Results taken from the supplement of paper PMC4858399.
Counter-ions that a name gives are not always drawn.

How the values were obtained:
[1] = tested on: Caenorhabditis elegans N2; test: lowest effective concentration for larval growth inhibition (size below effect threshold); higher = less potent; details: exposure time 48 h
How it was run: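 L1 larvae of C. elegans N2 (50 per 96-well) were grown in K-medium with killed bacteria and 1% DMSO, with the chemical at 0.5, 1, 5, 10, 50, 100 or 200 µM, for 48 h at 20°C. Per-worm extinction from the Biosort stood for size and was log-transformed into well means. For each chemical, the lowest effective concentration is the first dose where plate-adjusted mean size falls under the threshold and stays under it at the higher doses, using a threshold of 5.665.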

[2] = tested on: Caenorhabditis elegans N2; test: mean nematode size ln(EXT) after 48 h, plate-adjusted (DMSO control set to 6) (ln(EXT), control-adjusted); higher = larger nematodes / less growth inhibition; details: exposure time 48 h
How it was run: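 In K-medium with killed OP50, 1% DMSO and 0.5–200 µM chemical, synchronised N2 L1 larvae of C. elegans (50 per well) grew for 48 h at 20°C. Extinction was read for every worm on the Biosort, with debris removed by a growth model. Natural-log values averaged per well gave mean size, which was corrected per plate by subtracting the vehicle control mean and adding 6.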

Compound | lowest effective concentration [1] [µM] | mean nematode size ln(EXT) (ln) ([2]; 0.5 µM) | mean nematode size ln(EXT) (ln) ([2]; 1 µM) | mean nematode size ln(EXT) (ln) ([2]; 5 µM) | mean nematode size ln(EXT) (ln) ([2]; 10 µM) | mean nematode size ln(EXT) (ln) ([2]; 50 µM) | mean nematode size ln(EXT) (ln) ([2]; 100 µM) | mean nematode size ln(EXT) (ln) ([2]; 200 µM)
Cc1ccc(N)cc1O [5-Amino-o-cresol] | > 200 | 5.44 | 5.57 | 5.55 | 5.6 | 5.74 | 5.75 | 5.8
CC(=O)C1C(=O)C=C(C)OC1=O (stereo unspecified) [Sodium dehydroacetate] | > 200 | 5.99 | 5.95 | 5.97 | 5.86 | 5.94 | 5.93 | 5.72
CC(C)C1(C)N=C(c2nc3ccccc3cc2C(=O)O)NC1=O (stereo unspecified) [Imazaquin] | > 200 | 6.13 | 6.14 | 6.13 | 6.33 | 6.08 | 6.06 | 6.1
C1CNCCN1 [Piperazine] | > 200 | 5.84 | 5.81 | 5.85 | 5.84 | 5.89 | 5.84 | 5.74
Cn1cnc2c1c(=O)[nH]c(=O)n2C [Theobromine] | > 200 | 5.83 | 5.87 | 5.98 | 6.03 | 5.87 | 5.86 | 5.83
CCC(C)(CC)c1cc(NC(=O)c2c(OC)cccc2OC)on1 [Isoxaben] | > 200 | 5.88 | 5.93 | 6.01 | 6.02 | 5.92 | 6.03 | 5.93
CCCC(=O)OCCC(C)C [Isoamyl butyrate] | > 200 | 5.92 | 5.91 | 5.91 | 6.05 | 5.81 | 5.9 | 6.13
O=C(OCCCCCCOC(=O)c1ccccc1)c1ccccc1 [1,6-Hexanediol dibenzoate] | 50 | 5.83 | 5.82 | 5.69 | 5.68 | 5.63 | 5.49 | 5.57
CC1=C(C(=O)Nc2ccccc2)SCCO1 [Carboxin] | > 200 | 5.77 | 5.9 | 5.83 | 5.85 | 5.84 | 5.62 | 5.9
COC(=O)c1ccc(O)cc1 [Methylparaben] | > 200 | 6.02 | 5.99 | 5.95 | 6.11 | 6.02 | 6.06 | 5.7
C[C@]12C=CC(=O)C=C1CC[C@H]1[C@@H]3C[C@@H](O)[C@](O)(C(=O)CO)[C@@]3(C)C[C@H](O)[C@@]12F [Triamcinolone] | > 200 | 5.9 | 5.86 | 5.87 | 5.87 | 5.92 | 5.86 | 5.79
C/C=C/C=C/C(=O)O [Sorbic acid] | > 200 | 5.84 | 5.83 | 5.82 | 5.95 | 5.89 | 5.86 | 5.7
NC(N)=O [Urea] | > 200 | 5.83 | 5.73 | 5.79 | 5.7 | 5.77 | 5.86 | 5.74
Cc1ccc(S(=O)(=O)O)cc1C [Sodium xylenesulfonate] | > 200 | 5.89 | 5.95 | 5.92 | 5.82 | 5.89 | 5.8 | 5.72
O=C(O)CC(O)(CC(=O)O)C(=O)O [Citric acid] | > 200 | 5.85 | 6.03 | 6.03 | 5.9 | 5.99 | 5.63 | 5.73
Cc1ccc(S(=O)(=O)NC(=O)NN2CCCCCC2)cc1 [Tolazamide] | > 200 | 5.93 | 5.92 | 5.93 | 5.91 | 5.61 | 5.87 | 5.79
O=C(N[C@H]1CN2CCC1CC2)c1ccc2c(c1)OCCO2 | > 200 | 5.82 | 5.83 | 5.8 | 5.8 | 5.81 | 5.81 | 5.67
COc1ccc(-c2ccccc2)cc1NNC(=O)OC(C)C [Bifenazate] | > 200 | 5.62 | 5.82 | 5.8 | 5.93 | 5.25 | 5.68 | 5.87
Clc1ccccc1-c1nnc(-c2ccccc2Cl)nn1 [Clofentezine] | > 200 | 6.25 | 6.03 | 6.11 | 5.96 | 5.86 | 5.98 | 5.73
Nc1cccc(N)c1 [1,3-Benzenediamine] | > 200 | 5.8 | 5.84 | 5.87 | 5.89 | 5.87 | 6 | 5.78
Cc1ccccc1[N+](=O)[O-] [2-Nitrotoluene] | > 200 | 5.85 | 5.89 | 6.04 | 5.77 | 5.91 | 5.76 | 5.7
COc1cc(OC)nc(Sc2cccc(Cl)c2C(=O)O)n1 [Pyrithiobac-sodium] | > 200 | 5.98 | 6 | 6.11 | 6.18 | 6.06 | 6.1 | 5.69
O=C(O)C1(C(=O)Nc2ccc(Cl)cc2Cl)CC1 [Cyclanilide] | > 200 | 6.16 | 6.05 | 6.18 | 6.27 | 6.34 | 6.38 | 5.9
O=C(O)Cc1ccccc1Nc1c(Cl)cccc1Cl [Diclofenac sodium salt] | > 200 | 5.93 | 5.95 | 5.92 | 5.99 | 5.92 | 5.9 | 5.83
CCCCC(CC)CO (stereo unspecified) [2-Ethyl-1-hexanol] | > 200 | 5.86 | 5.82 | 5.79 | 5.75 | 5.7 | 5.85 | 5.92
CCC(C)(NC(=O)c1cc(Cl)c(C)c(Cl)c1)C(=O)CCl (stereo unspecified) [Zoxamide] | > 200 | 5.75 | 5.81 | 5.67 | 5.64 | 5.48 | 4.67 | 5.7
CNC(C)=O [N-Methylacetamide] | > 200 | 6.09 | 6.1 | 6.07 | 6.02 | 6.03 | 6.07 | 5.84
